# Data from US8367121B2, “Nutraceutical agent for attenuating the neurodegenerative process associated with Parkinson's disease” (Florida A & M University, priority 2005, dated 2013).
# Where two headings read alike, the source gives them in different places.
# Experiments:
# MPP+ toxicity = MPP+ toxicity in vitro (loss of ATP / cell death); type: cell-based; conditions: for protection against MPP+ toxicity: in vitro
# [1] = Reduce/chelate and complex iron; conditions: as demonstrated in our lab
# [2] = Non-enzymatic DA oxidation to melanized pigments in buffered non-acid solution exposed to atmosphere; conditions: neutral pH; data not published
# Excerpt: 2. DA AUTOXIDATION—The second major route for DA oxidation is non-enzymatic autoxidation in the presence of H2O2, ROS and metals (Fe^+2, Cu^+2, and Mn^+2) (Montgomery et al., Toxicology. 1995 Mar. 31; 97(1-3):3-9; Sayre et al., 1999 Bio-inorganic Chemistry 3:220-225). Autoxidation of DA can render formation of 6-OHDA (a potent neurotoxin) and O2.^−, of which the later if in proximity to nitric oxide (NO) can react to form ONOO—. Peroxynitrite can then re-oxidize DA, deplete available reduced glutathione/ascorbate, incur a substantial loss of endogenous GSH-peroxidase function and destroy the natural ability of GSH to act as an antioxidant, inactivate toxic DA o-semiquinones or ONOO—(Blum et al., 2001; Antunes et al., Toxicology. 2005 Mar. 15; 208(2):207-12). Likewise, the neurological damage associated with PD corresponds to depletion of SNc GSH as consistently evidenced in various studies (Ebadi et al, Prog Neurobiol. 1996 January; 48(1):1-19) and a reduction of GSH (ie. γ-glutamylcysteine. synthetase inhibitor) renders SNc neurons extremely vulnerable to the toxic effects of MPTP and 6-OHDA (Bharath et al., Biochem Pharmacol. 2002 September; 64(5-6):1037-48). In contrast, administration of thiol antioxidants such as dithioreitol, GSH and NAC (which block the autoxidation of DA), prevent MPTP induced toxicity in mice (Annepu and Ravindranath, Neurosci Lett. 2000 Aug. 11; 289(3):209-12; Bahat-Stroomza et al., Eur J Neurosci. 2005 February; 21(3):637-46). For these reasons, the formulation will include substances that prevent non-enzymatic DA oxidation herein classified under “DA-AUTOXIDATION (−)”. The compounds chosen were based on their propensity to block DA oxidation to melanized pigments in buffered non-acid solution exposed to atmosphere and corresponding production of ROS upon exposure of O2 (data not published). Of approximately 100 food based compounds tested in our lab, the findings indicate a block of DA oxidation at neutral pH by PY, β-CAROTENE (*), NAC (*), GSH (*), VITAMIN C (*). […] The addition of ascorbic acid as a DA-AUTOXIDATION (−) should be limited given its negative counter-indication with iron and 6-OHDA (Mendez-Alvarez et al., Free Radic Biol Med. 2001 Oct. 15; 31(8):986-98). In contrast, ample concentration of thiol substances should be added to the formulation as they are non-toxic, attenuate pathological effects of 6-OHDA, ONOO— and block the formation of DA o-semiquinone neurotoxic radicals (Asanuma et al., Acta Med. Okayama 2004: 58 (5) 221-233).
# 6-OHDA toxicity [3] = experiment: 6-OHDA toxicity in vitro; type: cell-based
# LDH = experiment: Substrate for lactic acid dehydrogenase; type: biochemical
# Excerpt: (§1) With that, overcoming the initial deficit imposed by PD toxins such as MPP+ are possible with non-glucose intermediates that are capable of sustaining ATP production through substrate level phosphorylation. These compounds should protect against cell death by MPP+, herein also classified under “ANAEROBIC (+)”. […] Agents capable of mediating positive effects on PK/LDH should in theory offset the metabolic vulnerability imposed by the rise in lactate/pyruvate, nicotinamide adenine dinucleotide (NAD)/nicotinamide adenine dinucleotide reduced (NADH) and NADP/NADPH ratios that occur during hypoglycemia and neurological damage (Auer RN. Metab Brain Dis. 2004 December; 19(3-4):169-75). For this reason, the first component and the base of this nutraceutical formulation are one or more of PYRUVIC ACID (*) (PY), […] ACID (SA)* and OXALOACETATE (*) (OA) as well as their corresponding molecular derivatives, analogues, esters or salts. […] On the other hand, PY can readily enter the brain, serve as a useful substrate for glycolysis, the Krebs cycle and the GABA shunt (Gonzalez et al., J Neurochem. 2005 October; 95(1):284-93) with capability to protect ergogenic failure associated with ischemic stroke and heart disease (Lee et al., J Neurosci. 2001 Oct. 15; 21(20):RC171; Hermann et al., Eur J Heart Fail. 2004 Mar. 1; 6(2):213-8).
# H2O2 toxicity = H2O2 toxicity in vitro; type: cell-based
# Excerpt: as §1
# complex IV = experiment: Mitochondrial complex IV function; type: biochemical
# complex I = experiment: Mitochondrial complex I function
# [4] = system: mitochondrial respiration; experiment: Mitochondrial O2 consumption / respiration; type: biochemical
# complex II = experiment: Mitochondrial complex II function; type: biochemical
# 6-OHDA toxicity [5] = conditions: Kabuto et al., Neurochem Res. 2005; cited from earlier work
# [6] = Non-enzymatic H2O2 scavenging
compound,measurement,setting,value
CC(=O)O[C@H](CC(=O)[O-])C[N+](C)(C)C [ACETYL-L-CARNITINE],protection against MPP+ toxicity,MPP+ toxicity,effective
"O=C(O[C@@H]1Cc2c(O)cc(O)cc2O[C@@H]1c1cc(O)c(O)c(O)c1)c1cc(O)c(O)c(O)c1 [EGCG, (−)-Epigallocatechin-3-gallate]",protection against MPP+ toxicity,MPP+ toxicity,effective
COc1cc(/C=C/C(=O)O)ccc1O [FERULIC ACID],reduce/chelate and complex iron,[1],most powerful
"O=C(COP(=O)(O)O)[C@@H](O)[C@H](O)[C@H](O)COP(=O)(O)O [FRUCTOSE 1,6 BISPHOSPHATE]",protection against MPP+ toxicity,MPP+ toxicity,effective
O=C(CO)[C@@H](O)[C@H](O)[C@H](O)CO [FRUCTOSE],protection against MPP+ toxicity,MPP+ toxicity,effective
"N[C@@H](CCC(=O)N[C@@H](CS)C(=O)NCC(=O)O)C(=O)O [GSH, reduced glutathione]",block of DA oxidation,[2],block
same,protection against / antagonism of 6-OHDA toxicity,6-OHDA toxicity [3],directly antagonize
O=c1c(O)c(-c2ccc(O)cc2O)oc2cc(O)cc(O)c12 [MORIN],reduce/chelate and complex iron,[1],most powerful
"CC(=O)N[C@@H](CS)C(=O)O [NAC, N-acetyl-L-cysteine]",block of DA oxidation,[2],block
same,protection against / antagonism of 6-OHDA toxicity,6-OHDA toxicity [3],directly antagonize
"NC(=O)C1=CN([C@@H]2O[C@H](COP(=O)(O)OP(=O)(O)OC[C@H]3O[C@@H](n4cnc5c(N)ncnc54)[C@H](O)[C@@H]3O)[C@@H](O)[C@H]2O)C=CC1 [NADH, reduced nicotinamide adenine dinucleotide]",protection against MPP+ toxicity,MPP+ toxicity,protect
C=C(OP(=O)(O)O)C(=O)O [PHOSPHOENOLPYRUVATE],protection against MPP+ toxicity,MPP+ toxicity,effective
"CN1C(C(=O)Nc2ccccn2)=C(O)c2ccccc2S1(=O)=O [PIROXICAM, reference compound]",protection against MPP+ toxicity,MPP+ toxicity,effective
"CC(=O)C(=O)O [PY, PYRUVIC ACID]",substrates for LDH,LDH,exceptional substrates for LDH
same,protection against H2O2 toxicity,H2O2 toxicity,protect
same,block of DA oxidation,[2],block
same,protection against / antagonism of 6-OHDA toxicity,6-OHDA toxicity [3],protect
same,protection against / antagonism of 6-OHDA toxicity,6-OHDA toxicity [3]; listed as pyruvate,directly antagonize
same,protection against MPP+ toxicity,MPP+ toxicity,protect
Oc1ccc(C=Cc2cc(O)cc(O)c2)cc1 [RESVERATROL],protection against MPP+ toxicity,MPP+ toxicity,effective
"O=C(O)CCC(=O)O [SA, SUCCINIC ACID]",fuel anaerobic glycolysis in the presence of MPP+,MPP+ toxicity; data not published,great propensity
Oc1ccc2c(c1)OCO2 [SESAMOL],reduce/chelate and complex iron,[1],most powerful
CC1=CC(=O)C(C(C)C)=CC1=O [THYMOQUINONE],protection against MPP+ toxicity,MPP+ toxicity,effective
N[C@@H](Cc1c[nH]c2ccccc12)C(=O)O [TRYPTOPHAN],protection against MPP+ toxicity,MPP+ toxicity,effective
"O=C1O[C@H]([C@@H](O)CO)C(O)=C1O [VITAMIN C, ascorbic acid]",block of DA oxidation,[2],block
O=C(O)/C=C/c1ccc(O)c(O)c1 [caffeic acid],reduce/chelate and complex iron,[1],most powerful
COC1=C(OC)C(=O)C(C/C=C(\C)CC/C=C(\C)CC/C=C(\C)CC/C=C(\C)CC/C=C(\C)CC/C=C(\C)CC/C=C(\C)CC/C=C(\C)CC/C=C(\C)CCC=C(C)C)=C(C)C1=O [coenzyme Q10],effects on complex IV function,complex IV,little to no effects
same,effects on complex I function,complex I,little to no effects
same,effects on mitochondrial O2 consumption / mitochondrial respiration as a whole,[4],no effects
same,potentiation of complex II function,complex II,mild potentiator
same,protection against MPP+ toxicity,MPP+ toxicity,no effects
O=c1oc2c(O)c(O)cc3c(=O)oc4c(O)c(O)cc1c4c23 [ellagic acid],reduce/chelate and complex iron,[1],most powerful
N[C@@H](Cc1c[nH]cn1)C(=O)O [histidine],protection against / antagonism of 6-OHDA toxicity,6-OHDA toxicity [3],mild protection
O=c1c(O)c(-c2ccc(O)c(O)c2)oc2cc(O)cc(O)c12 [quercetin],reduce/chelate and complex iron,[1],most powerful
"Cc1cc2nc3c(=O)[nH]c(=O)nc-3n(C[C@H](O)[C@H](O)[C@H](O)CO)c2cc1C [riboflavin, RIBOFLAVIN]",protection against MPP+ toxicity,MPP+ toxicity,exacerbating
COc1cc(CCC(C)=O)ccc1O [zingerone],antagonism of 6-OHDA toxicity,6-OHDA toxicity [5],directly antagonize
CC1=C(/C=C/C(C)=C/C=C/C(C)=C/C=C/C=C(C)/C=C/C=C(C)/C=C/C2=C(C)CCCC2(C)C)C(C)(C)CCC1 [β-CAROTENE],block of DA oxidation,[2],block
same,scavenge H2O2,[6],scavenge
"CYTOCHROME C: cytochrome C, combined with an H2O2 antioxidant to detoxify 6-OHDA",protection against / antagonism of 6-OHDA toxicity,6-OHDA toxicity [3],directly antagonize
NARINGEN,protection against MPP+ toxicity,MPP+ toxicity,effective
Vitamin E,block of DA oxidation,[2],lack of effects
same,scavenge H2O2,[6],lack of effects
